{"source": "patent US6124456A", "about": "“Pyrazolopyridine compound and pharmaceutical use thereof” (Fujisawa Pharmaceutical Co., Ltd., priority 1996, dated 2000)", "test_system": "human A1 receptor", "assay": "Adenosine antagonistic activity: radioligand binding with 3H-DPCPX", "settings": "at the dose of 1.0×10^-7 M; radioligand 3H-DPCPX 2×10^-9 M", "source_text": "Test: Adenosine Antagonistic Activity\nThe adenosine antagonistic activity of the test compound was examined by radioligand binding techniques using 8-cyclopentyl-1,3-dipropylxanthine, dipropyl-2,3-^3 H(N)] (^3 H-DPCPX, 2×10^-9 M) for human A^1 receptor."}
{"smiles": "CN1CCC(n2nc(-c3c(-c4ccccc4)nn4ccccc34)ccc2=O)CC1", "note": "[Example 2, 3-[2-(1-methylpiperidin-4-yl)-3-oxo-2,3-dihydropyridazin-6-yl]-2-phenylpyrazolo[1,5-a]pyridine]", "values": [{"measurement": "inhibition (%)", "result": "more than 90%"}]}
